Test results published in patent US20170114070A1, “INHIBITORS OF THE WNT SIGNALLING PATHWAYS” (Bayer Pharma Aktiengesellschaft, priority 2014, published 2017).
Where a name gives a salt, the structure may show the parent alone.

Columns and labels:
[1] = tested on: HCT116 FOPFlash (FOP control vector, non-functional TCF elements); experiment: Cellular control reporter assay, HCT116 FOP control vector; format: cell-based; details: Homo sapiens, HCT-116; HCT116 stably transfected with FOP control vector; 36 hours incubation; luciferase expression; dilution series from 50 μM
Procedure: (§1) In a parallel approach, HCT116 cells were cotransfected with the FOP control vector and pcDNA3. The FOP vector is identical to the TOP construct, but it contains instead of functional TCF elements a randomized, non-functional sequence. For this transfection a stable transfected cell line was generated as well.
(§2) In preparation of the assay, the two cell lines were plated 24 hours before at 10000 cells per well of a 384 micro titre plate (MTP) in 30 μL growth medium. Selective inhibitory activity for small molecules on the mutated Wnt pathway was determined after parallel incubation of both (TOP and FOP) HCT116 reporter cell lines with a compound dilution series from 50 μM to 15 nM in steps of 3.16-fold dilutions in CAFTY buffer (130 mM NaCl, 5 mM KCl, 20 mM HEPES, 1 mM MgCl2, 5 mM NaHCO3, pH 7.4) containing 2 mM Ca^2+ and 0.01% BSA. The compounds were thereby serially prediluted in 100% DMSO and thereafter in addition 50 fold into the CAFTY compound dilution buffer (described above). From this dilution 10 μL were added to the cells in 30 μL growth medium and incubated for 36 hours at 37° C. and 5% CO2. Thereafter luciferase assay buffer (1:1 mixture of luciferase substrate buffer (20 mM Tricine, 2.67 mM MgSO4, 0.1 mM EDTA, 4 mM DTT, 270 μM Coenzyme A, 470 μM Luciferin, 530 μM ATP, ph adjusted to pH 7.8 with a sufficient volume of 5M NaOH) and Triton buffer (30 mL Triton X-100, 115 mL glycerol, 308 mg Dithiothreitol, 4.45 g Na2HPO4.2H2O, 3.03 g TRIS HCl, ad 1 l H20, pH 7.8) was added as equal volume to the compound solution on the cells to determine luciferase expression as a measure of Wnt signaling activity in a luminometer.

[2] = tested on: constitutive active Wnt pathway (HCT116 TOPFlash); experiment: Cellular reporter assay, HCT116 Super TopFlash (constitutive active Wnt pathway); format: cell-based; details: Homo sapiens, HCT-116; HCT116 stably transfected with Super TopFlash vector; 36 hours incubation; luciferase expression
Procedure: In order to discover and characterize small molecules which inhibit the constitutive active colorectal cancer cell (CRC) Wnt pathway, a cellular reporter assay was employed. The corresponding assay cell was generated by transfection of the colorectal cancer cell line HCT116 (ATCC, #CCL-247) with the Super TopFlash vector (Morin, Science 275, 1997, 1787-1790; Molenaar et al., Cell 86 (3), 1996, 391-399). The HCT116 cell line is cultivated at 37° C. and 5% CO2 in DMEM/F-12 (Life Technologies, #11320-074), supplemented with 2 mM glutamine, 20 mM HEPES, 1.4 mM pyruvate, 0.15% Na-bicarbonate and 10% foetal bovine serum (GIBCO, #10270), this cancer cell line is pathophysiological relevant since it carries a deletion of position S45 in the β-catenin gene, leading to constitutive active Wnt signaling. Stable transfectants were generated by cotransfection with pcDNA3 and selection of stable transfected cells with 1 mg/ml G418.
as §1, §2

Row | IC50 [1] [nM] | IC50 [2] [nM] | SMILES
1 | ≥ 50000 | 82 | Cc1ccncc1-c1cnc(NC(=O)c2ccc(OC(F)(F)F)c(NC(=O)CN3CCN(C)CC3)c2)cn1 [Example 30, 3-{[(4-methylpiperazin-1-yl)acetyl]amino}-N-[5-(4-methylpyridin-3-yl)pyrazin-2-yl]-4-(trifluoromethoxy)benzamide]
2 | ≥ 50000 | 14.4 | O=C(Nc1cnc(-c2ccccc2)cn1)c1ccc(OC(F)(F)F)c(NC(=O)C2(N3CCOCC3)CC2)c1 [Example 20, 3-({[1-(morpholin-4-yl)cyclopropyl]carbonyl}amino)-N-(5-phenylpyrazin-2-yl)-4-(trifluoromethoxy)benzamide]
3 | 46000 | 29.7 | O=C(CN1CCOCC1)Nc1cc(C(=O)Nc2cnc(-c3cccnc3)cn2)ccc1OC(F)(F)F [Example 23, 3-[(morpholin-4-ylacetyl)amino]-N-[5-(pyridin-3-yl)pyrazin-2-yl]-4-(trifluoromethoxy)benzamide]
4 | 11000 | 16.8 | CN1CCN(CC(=O)Nc2cc(C(=O)Nc3cnc(-c4ccccc4)cn3)ccc2OC2CC2)CC1 [Example 21, 4-(cyclopropyloxy)-3-{[(4-methylpiperazin-1-yl)acetyl]amino}-N-(5-phenylpyrazin-2-yl)benzamide]
5 | ≥ 50000 | 43.3 | Nc1ccc(-c2ccc(NC(=O)c3ccc(OC(F)(F)F)c(NC(=O)CN4CCOCC4)c3)nn2)cn1 [Example 16, N-[6-(6-aminopyridin-3-yl)pyridazin-3-yl]-3-[(morpholin-4-ylacetyl)amino]-4-(trifluoromethoxy)benzamide]
6 | ≥ 50000 | 120 | Cc1ccccc1-c1cnc(NC(=O)c2ccc(OC(F)(F)F)c(NC(=O)CN3CCN(C)CC3)c2)cn1 [Example 42, N-[5-(2-methylphenyl)pyrazin-2-yl]-3-{[(4-methylpiperazin-1-yl)acetyl]amino}-4-(trifluoromethoxy)benzamide]
7 | ≥ 50000 | 99.2 | CN1CCN(CC(=O)Nc2cc(C(=O)Nc3ccc(-c4cnc(N)nc4)nn3)ccc2OC(F)(F)F)CC1 [Example 3, N-[6-(2-aminopyrimidin-5-yl)pyridazin-3-yl]-3-{[(4-methylpiperazin-1-yl)acetyl]amino}-4-(trifluoromethoxy)benzamide]
8 | ≥ 50000 | 2400 | O=C(CN1CCOCC1)Nc1cc(C(=O)Nc2cnc(-c3cnccn3)cn2)ccc1OC(F)(F)F [Example 57, N-(2,2′-bipyrazin-5-yl)-3-[(morpholin-4-ylacetyl)amino]-4-(trifluoromethoxy)benzamide]
9 | 26800 | 88.5 | O=C(CN1CCOCC1)Nc1cc(C(=O)Nc2cnc(-c3cc(F)cc(F)c3)cn2)ccc1OC(F)(F)F [Example 31, N-[5-(3,5-difluorophenyl)pyrazin-2-yl]-3-[(morpholin-4-ylacetyl)amino]-4-(trifluoromethoxy)benzamide]
10 | ≥ 50000 | 16700 | O=C(CN1CCOCC1)Nc1cc(C(=O)Nc2cnc(-c3cncnc3)cn2)ccc1OC1CC1 [Example 27, 4-(cyclopropyloxy)-3-[(morpholin-4-ylacetyl)amino]-N-[5-(pyrimidin-5-yl)pyrazin-2-yl]benzamide]
11 | 4100 | 240 | Cc1cccc(-c2cnc(NC(=O)c3ccc(OC(F)(F)F)c(NC(=O)CN4CCOCC4)c3)cn2)c1 [Example 47, N-[5-(3-methylphenyl)pyrazin-2-yl]-3-[(morpholin-4-ylacetyl)amino]-4-(trifluoromethoxy)benzamide]
12 | 25500 | 12500 | N=S1(=O)CCN(CC(=O)Nc2cc(C(=O)Nc3ccc(-c4ccccc4)nn3)ccc2OC(F)(F)F)CC1 [Example 62]
13 | 9500 | 830 | Nc1ncc(-c2cnc(NC(=O)c3ccc(OC(F)(F)F)c(NC(=O)CN4CCOCC4)c3)cn2)cn1 [Example 53, N-[5-(2-aminopyrimidin-5-yl)pyrazin-2-yl]-3-[(morpholin-4-ylacetyl)amino]-4-(trifluoromethoxy)benzamide]
14 | 40000 | 16700 | Cc1cccc(-c2cnc(NC(=O)c3ccc(OC(F)(F)F)c(NC(=O)CN4CCN(C)CC4)c3)cn2)c1 [Example 32, N-[5-(3-methylphenyl)pyrazin-2-yl]-3-{[(4-methylpiperazin-1-yl)acetyl]amino}-4-(trifluoromethoxy)benzamide]
15 | ≥ 50000 | 123 | O=C(CN1CCOCC1)Nc1cc(C(=O)Nc2cnc(-c3ccccc3)cn2)ccc1OC1CC1 [Example 38, 4-(cyclopropyloxy)-3-[(morpholin-4-ylacetyl)amino]-N-(5-phenylpyrazin-2-yl)benzamide]
16 | ≥ 50000 | 24.8 | CN1CCN(CC(=O)Nc2cc(C(=O)Nc3ccc(-c4ccc(N)nc4)nn3)ccc2OC(F)(F)F)CC1 [Example 1, N-[6-(6-aminopyridin-3-yl)pyridazin-3-yl]-3-{[(4-methylpiperazin-1-yl)acetyl]amino}-4-(trifluoromethoxy)benzamide]
17 | ≥ 50000 | 483 | O=C(CN1CCOCC1)Nc1cc(C(=O)Nc2cnc(-c3ccncc3)cn2)ccc1OC(F)(F)F [Example 51, 3-[(morpholin-4-ylacetyl)amino]-N-[5-(pyridin-4-yl)pyrazin-2-yl]-4-(trifluoromethoxy)benzamide]
18 | ≥ 50000 | 17.5 | CN1CCN(CC(=O)Nc2cc(C(=O)Nc3ccc(-c4cccnc4)nn3)ccc2OC(F)(F)F)CC1 [Example 4, 3-{[(4-methylpiperazin-1-yl)acetyl]amino}-N-[6-(pyridin-3-yl)pyridazin-3-yl]-4-(trifluoromethoxy)benzamide]
19 | 44700 | 372 | O=C(CN1CCOCC1)Nc1cc(C(=O)Nc2cnc(-c3cnccn3)cn2)ccc1OC1CC1 [Example 52, N-(2,2′-bipyrazin-5-yl)-4-(cyclopropyloxy)-3-[(morpholin-4-ylacetyl)amino]benzamide]
20 | 3100 | – | O=C(Nc1ccc([N+](=O)[O-])cc1Cl)c1cc(Cl)ccc1O [Ref., niclosamide, reference compound]
21 | ≥ 50000 | 63.2 | O=C(CN1CCOCC1)Nc1cc(C(=O)Nc2cnc(-c3ccccc3)cn2)ccc1OC(F)(F)F [Example 10, 3-[(morpholin-4-ylacetyl)amino]-N-(5-phenylpyrazin-2-yl)-4-(trifluoromethoxy)benzamide]
22 | ≥ 50000 | 20 | O=C(CN1CCOCC1)Nc1cc(C(=O)Nc2ccc(-c3ccccc3)nn2)ccc1OC(F)(F)F [Example 7, 3-[(morpholin-4-ylacetyl)amino]-N-(6-phenylpyridazin-3-yl)-4-(trifluoromethoxy)benzamide]
23 | ≥ 50000 | 13 | CN1CCN(CC(=O)Nc2cc(C(=O)Nc3cnc(-c4ccccc4)cn3)ccc2OC(F)(F)F)CC1 [Example 11, 3-{[(4-methylpiperazin-1-yl)acetyl]amino}-N-(5-phenylpyrazin-2-yl)-4-(trifluoromethoxy)benzamide]
24 | ≥ 50000 | 120 | CN1CCN(CC(=O)Nc2cc(C(=O)Nc3cnc(-c4cccnc4F)cn3)ccc2OC(F)(F)F)CC1 [Example 36, N-[5-(2-fluoropyridin-3-yl)pyrazin-2-yl]-3-{[(4-methylpiperazin-1-yl)acetyl]amino}-4-(trifluoromethoxy)benzamide hydrochloride]
25 | ≥ 50000 | 834 | O=C(CN1CCOCC1)Nc1cc(NC(=O)c2cnc(-c3ccccc3)cn2)ccc1OC(F)(F)F [Example 6, N-{3-[(morpholin-4-ylacetyl)amino]-4-(trifluoromethoxy)phenyl}-5-phenylpyrazine-2-carboxamide]
26 | ≥ 50000 | – | CN1CCN(CC(=O)Nc2cc(C(=O)Nc3cnc(-c4ccc(N)nc4)cn3)ccc2OC(F)(F)F)CC1 [Example 24, N-[5-(6-aminopyridin-3-yl)pyrazin-2-yl]-3-{[(4-methylpiperazin-1-yl)acetyl]amino}-4-(trifluoromethoxy)benzamide]
